Measurements reported in the NIST ThermoML archive (doi:10.1016/j.jct.2006.06.002).
± gives the expanded uncertainty stated by the source.

Assay: refractive index (Na D-line) (dimensionless)
Conditions: 101.33 kPa, Liquid, Standard Abbe refractometry

SMILES | refractive index (293.15 K) | refractive index (303.15 K)
CO [methanol] | 1.3288 ± 0.0009 | 
c1ccccc1 [benzene] |  | 1.4954 ± 0.0009
